Test results as given in US5672715A, “Herbicidal substituted 3-aryl-pyrazoles” (Monsanto Company, priority 1995, dated 1997).
Several values for one entry are separate records, joined by “and”; a condition that tells them apart may be missing. Equal entries are not always repeated.

Tests used:
Assay type in all cases: in vivo
Broadleaf Signalgrass = assay: pre-emergence herbicide test; settings: Urochloa platyphylla, 0.25 lb/A, read-out: % plant inhibition
In short: (§1)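 Herbicidal effect was assessed as percent inhibition about 14 days after sowing. A known amount of compound was added to the covering topsoil, and the pans were subirrigated in a greenhouse.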

Seedling Johnsongrass = assay: pre-emergence herbicide test; settings: 0.25 lb/A; for inhibition at 280.212 g/ha: Sorghum halepense, pre-emergence, read-out: % plant inhibition
In short: as §1

Shattercane = assay: pre-emergence herbicide test; settings: 0.25 lb/A, read-out: % plant inhibition
In short: as §1

Wild Proso Millet = assay: pre-emergence herbicide test; settings: 0.25 lb/A, read-out: % plant inhibition
In short: as §1

Bedstraw Catchweed [1] = assay: post-emergence herbicide test; settings: Galium aparine, post-emergence, read-out: % plant inhibition; for inhibition at 7.95803 g/ha: 0.0071 lb/A; for inhibition at 40.0143 g/ha: 0.0357 lb/A; for inhibition at 200.072 g/ha: 0.1785 lb/A; for inhibition at 1000.92 g/ha: 0.893 lb/A
In short: (§2)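 Two- to three-week-old plants, greenhouse-grown in compacted topsoil, received candidate chemical by atomizer spray at 1870 L/Ha. Scored as percent inhibition.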

Cocklebur = assay: post-emergence herbicide test; settings: Xanthium strumarium, post-emergence, read-out: % plant inhibition; for inhibition at 7.95803 g/ha: 0.0071 lb/A; for inhibition at 40.0143 g/ha: 0.0357 lb/A; for inhibition at 200.072 g/ha: 0.1785 lb/A; for inhibition at 1000.92 g/ha: 0.893 lb/A
In short: as §2

Corn = assay: post-emergence herbicide test; settings: Zea mays, post-emergence, read-out: % plant inhibition; for inhibition at 7.95803 g/ha: 0.0071 lb/A; for inhibition at 40.0143 g/ha: 0.0357 lb/A; for inhibition at 200.072 g/ha: 0.1785 lb/A; for inhibition at 1000.92 g/ha: 0.893 lb/A
In short: as §2

Wheat [2] = assay: post-emergence herbicide test; settings: Triticum aestivum, post-emergence, read-out: % plant inhibition; for inhibition at 7.95803 g/ha: 0.0071 lb/A; for inhibition at 40.0143 g/ha: 0.0357 lb/A; for inhibition at 200.072 g/ha: 0.1785 lb/A; for inhibition at 1000.92 g/ha: 0.893 lb/A
In short: as §2

Yellow Nutsedge = assay: post-emergence herbicide test; settings: Cyperus, read-out: % plant inhibition; for inhibition at 7.95803 g/ha: 0.0071 lb/A; for inhibition at 40.0143 g/ha: 0.0357 lb/A; for inhibition at 200.072 g/ha: 0.1785 lb/A; for inhibition at 1000.92 g/ha: 0.893 lb/A
In short: as §2

Giant Foxtail = assay: pre-emergence herbicide test; settings: Setaria faberi, pre-emergence, 0.25 lb/A; read-out: % plant inhibition
In short: as §1

Prickly Sida [3] = assay: pre-emergence herbicide test; settings: 0.25 lb/A, read-out: % plant inhibition
In short: as §1

Black Nightshade = assay: post-emergence herbicide test; settings: Solanum nigrum, 0.25 lb/A, read-out: % plant inhibition
In short: as §2

Hemp Sesbania = assay: post-emergence herbicide test; settings: 0.25 lb/A, read-out: % plant inhibition
In short: as §2

Prickly Sida [4] = assay: post-emergence herbicide test; settings: 0.25 lb/A, read-out: % plant inhibition
In short: as §2

Sicklepod = assay: post-emergence herbicide test; settings: Senna obtusifolia, 0.25 lb/A, read-out: % plant inhibition
In short: as §2

Bedstraw Catchweed [5] = assay: pre-emergence herbicide test
In short: as §1

Blackgrass = assay: pre-emergence herbicide test
In short: as §1

Common Chickweed = assay: pre-emergence herbicide test; settings: pre-emergence, 0.0071 lb/A; read-out: % plant inhibition
In short: as §1

Wheat [6] = assay: pre-emergence herbicide test; settings: Triticum aestivum, pre-emergence, read-out: % plant inhibition
In short: as §1

Structure (SMILES) | inhibition at 7.95803 g/ha (Bedstraw Catchweed [1]) [%] | inhibition at 40.0143 g/ha (Bedstraw Catchweed [1]) [%] | inhibition at 200.072 g/ha (Bedstraw Catchweed [1]) [%] | inhibition at 1000.92 g/ha (Bedstraw Catchweed [1]) [%] | inhibition at 7.95803 g/ha (Cocklebur) [%] | inhibition at 40.0143 g/ha (Cocklebur) [%] | inhibition at 200.072 g/ha (Cocklebur) [%] | inhibition at 1000.92 g/ha (Cocklebur) [%] | inhibition at 7.95803 g/ha (Corn) [%] | inhibition at 40.0143 g/ha (Corn) [%] | inhibition at 200.072 g/ha (Corn) [%] | inhibition at 1000.92 g/ha (Corn) [%] | inhibition at 7.95803 g/ha (Wheat [2]) [%] | inhibition at 40.0143 g/ha (Wheat [2]) [%] | inhibition at 200.072 g/ha (Wheat [2]) [%] | inhibition at 1000.92 g/ha (Wheat [2]) [%] | inhibition at 7.95803 g/ha (Yellow Nutsedge) [%] | inhibition at 40.0143 g/ha (Yellow Nutsedge) [%] | inhibition at 200.072 g/ha (Yellow Nutsedge) [%] | inhibition at 1000.92 g/ha (Yellow Nutsedge) [%] | other results
C#CCOc1cc(-c2nn(C)c(C(F)(F)F)c2C)c(F)cc1Cl [Compound 39] | 0 | 100 | 100 | 100 | 80 | 98 | 80 | 100 | 50 | 30 | 100 | 95 | 0 | 0 | 15 | 75 | 0 | 40 | 10 | 30 | inhibition at 280.212 g/ha (Broadleaf Signalgrass): 100%; inhibition at 280.212 g/ha (Seedling Johnsongrass): 100%; inhibition at 280.212 g/ha (Shattercane): 100%; inhibition at 280.212 g/ha (Wild Proso Millet): 100%
COc1cc(-c2nn(C)c(C(F)(F)F)c2C)c(F)cc1Cl [Compound 37] | 20 | 35 | 75 | 90 | 5 | 40 | 55 | 80 | 5 | 10 | 50 | 100 | 5 | 0 | 10 | 30 | 0 | 10 | 15 | 40 | inhibition at 280.212 g/ha (Broadleaf Signalgrass): 100%; inhibition at 280.212 g/ha (Giant Foxtail): 100%; inhibition at 280.212 g/ha (Seedling Johnsongrass): 100%; inhibition at 280.212 g/ha (Shattercane): 100%; inhibition at 280.212 g/ha (Wild Proso Millet): 100%
Cc1c(-c2cc(OCC(=O)OC(C)C)c(Cl)cc2F)nn(C)c1C(F)(F)F [Compound 38] | 35 | 85 | 90 | 85 | 80 | 80 | 80 | 100 | 5 | 10 | 25 | 25 | 10 | 10 | 10 | 10 | 35 | 25 | 25 | 25 | inhibition at 280.212 g/ha (Giant Foxtail): 20%; inhibition at 280.212 g/ha (Prickly Sida [3]): 95%; % plant inhibition (Seedling Johnsongrass): 25%; inhibition at 280.212 g/ha (Seedling Johnsongrass): 30%; inhibition at 280.212 g/ha (Black Nightshade): 100%; inhibition at 280.212 g/ha (Cocklebur; 0.25 lb/A): 100%; inhibition at 280.212 g/ha (Corn; 0.25 lb/A): 10%; inhibition at 280.212 g/ha (Hemp Sesbania): 100%; inhibition at 280.212 g/ha (Prickly Sida [4]): 50%; inhibition at 280.212 g/ha (Sicklepod): 20%
COc1cc(-c2nn(C)c(C(F)(F)F)c2C)c(F)cc1[N+](=O)[O-] [Compound 36] | 0 | 25 | 50 | 75 | 75 | 0 | 60 | 98 | 0 | 25 | 30 | 40 | 10 | 5 | 20 | 25 | 0 | 0 | 0 | 25 | % plant inhibition (Bedstraw Catchweed [5]; 0.1785 lb/A): 80%; inhibition at 7.95803 g/ha (Bedstraw Catchweed [5]; Galium aparine, pre-emergence, 0.0071 lb/A, read-out: % plant inhibition): 0%; inhibition at 200.072 g/ha (Bedstraw Catchweed [5]; Galium aparine, pre-emergence, 0.1785 lb/A, read-out: % plant inhibition): 100%; inhibition at 1000.92 g/ha (Bedstraw Catchweed [5]; Galium aparine, pre-emergence, 0.893 lb/A, read-out: % plant inhibition): 100%; % plant inhibition (Blackgrass; 0.893 lb/A): 100% and 50%; inhibition at 7.95803 g/ha (Blackgrass; Alopecurus myosuroides, pre-emergence, 0.0071 lb/A, read-out: % plant inhibition): 0%; inhibition at 40.0143 g/ha (Blackgrass; Alopecurus myosuroides, pre-emergence, 0.0357 lb/A, read-out: % plant inhibition): 0%; inhibition at 7.95803 g/ha (Common Chickweed): 0%; inhibition at 7.95803 g/ha (Wheat [6]; 0.0071 lb/A): 0%; inhibition at 40.0143 g/ha (Wheat [6]; 0.0357 lb/A): 0%
